Data published in the NIST ThermoML archive (doi:10.1021/je050378i).

Test: wn = mass fraction of the nth substance listed
Details: 101.33 kPa, Liquid

CC(C)(N)CO [2-amino-2-methylpropan-1-ol] + O
w1 = 0.3
Details | mass density [kg/m3] | viscosity [mPa·s]
298 K | 997 | 3.637
303 K | 994.2 | 2.964
308 K | 991.4 | 2.446
313 K | 988.4 | 2.043
318 K | 985.4 | 1.696
323 K | 982.1 | 1.425
328 K | 978.8 | 1.237
333 K | 975.5 | 1.081

C1CNCCN1 [piperazine] + O
Details | mass density, w1 = 0.0174 [kg/m3] | mass density, w1 = 0.0345 [kg/m3] | mass density, w1 = 0.0516 [kg/m3] | mass density, w1 = 0.0688 [kg/m3] | viscosity, w1 = 0.0174 [mPa·s] | viscosity, w1 = 0.0344 [mPa·s] | viscosity, w1 = 0.0516 [mPa·s] | viscosity, w1 = 0.0688 [mPa·s]
298 K | 997.8 | 998.5 | 999.4 | 1000.6 | 0.957 | 1.021 | 1.09 | 1.169
303 K | 996.5 | 997.2 | 998.1 | 999 | 0.861 | 0.915 | 0.965 | 1.035
308 K | 995.1 | 995.7 | 996.5 | 997.6 | 0.776 | 0.805 | 0.865 | 0.91
313 K | 993.2 | 994.1 | 994.7 | 995.6 | 0.681 | 0.718 | 0.763 | 0.821
318 K | 991.4 | 992.2 | 992.5 | 993.8 | 0.623 | 0.652 | 0.703 | 0.731
323 K | 989.3 | 990.2 | 990.4 | 991.4 | 0.573 | 0.592 | 0.624 | 0.663
328 K | 986.7 | 987.4 | 988 | 989.1 | 0.543 | 0.543 | 0.569 | 0.604
333 K | 984.2 | 984.5 | 985.7 | 987.4 | 0.488 | 0.505 | 0.523 | 0.546
